Results taken from patent US20240207446A1, “M6A-COUPLED EFFECTOR PROTEIN EXPRESSION SYSTEM AND METHODS OF MAKING AND USING SAME” (Duke University, priority 2022, published 2024).
Entries after “also recorded” stand apart in the source; their conditions may differ.

Legend:
[1] = system: METTL3 (m^6A methylation of the GEMS reporter mRNA), HEK293T cells; experiment: Western blot and densitometry (EGFP, EGFP-DHFR) in HEK293T cells expressing GEMS; format: cell-based, human
Experimental: Western blotting. Cells were dissociated in culture plates using TrypLE (Gibco) and collected by centrifugation (6,000 rpm, 10 minutes, 4° C.). Cell pellets were resuspended in 150 μL chilled standard RIPA buffer (1% Triton X-100, 0.1% Sodium Deoxycholate, 0.1% SDS) prepared with the addition of Complete Mini protease inhibitor (Sigma Aldrich) immediately before use. Cells were resuspended and incubated on ice in RIPA buffer for 30 minutes. Cell lysates were cleared by centrifugation (13,000 rpm, 10 minutes, 4° C.) and mixed in a 1:1 ratio with NuPage LDS sample buffer (Invitrogen) with 5% Beta-Mercaptoethanol (Sigma). Samples were separated by gel electrophoresis on NuPage 4-12% Bis-Tris SDS-PAGE gels (Invitrogen), then transferred onto PVDF membranes (Amersham) using semi-dry transfer (Trans-Blot Turbo, Biorad). Membranes were blocked with 4% milk powder in 0.1% PBST and incubated with the appropriate primary antibody overnight at 4° C. Membranes were then washed with 0.1% PBST and incubated for 1 hour at room temperature in secondary antibody. Blots were washed and incubated in chemiluminescent ECL reagent solution (Amersham) then imaged in a ChemiDoc MP imaging system (BioRad) under chemiluminescent and colorimetric light. In western blot images, cyclophilin A is shown as a loading control and all western blots are representative of a minimum of 3 independent biological replicates. The following antibodies were used in this study: GFP tag Polyclonal antibody (Proteintech, 50430-2-AP). Anti-HA rabbit monoclonal antibody (Cell Signaling, 3724). Anti-Cyclophilin A antibody (Cell Signaling, 2175S). Anti-DsRed-Express2 Monoclonal Antibody (Fisher Scientific, CF180014). Anti-METTL3 antibody (abcam, ab195352). Anti-SOCS2 antibody (abcam, ab109245). Anti-p53 (7F5) Rabbit monoclonal antibody (Cell Signaling, 2527S). Recombinant Anti-JAK2 Antibody (abcam, ab108596). Recombinant Anti-STAT5 (phosphorylated Y694) (abcam, ab32364). Anti-STAT5 antibody (Cell Signaling, 25656S). Secondary antibodies used in this study: Goat Anti-Rabbit IgG HRP (Abcam, ab6721), Goat anti-mouse IgG HRP (Fisher Scientific, 62-6520).
For densitometry analysis, western blot images were quantified using ImageJ software 58. EGFP band intensity was normalized to either EGFP-DHFR or (EGFP+EGFP-DHFR) as indicated in each experiment. Similar densitometry analysis was used to measure total protein production (EGFP+EGFP-DHFR), normalized to the Cyclophilin A loading control. At least two replicates were used for each western blot quantification analysis. Bars are plotted as mean intensity ratio and error bars represent standard deviation.

m^6A sensor sequence = experiment: RT-PCR/Sanger sequencing of C-to-U editing of the m^6A sensor sequence in HEK293T cells; format: cell-based, human
Experimental: (§1) Sanger sequencing and RT-qPCR. Cells were dissociated in culture using TrypLE (Gibco) treatment for 2 minutes and collected by centrifugation (6,000 rpm, 10 minutes, 4° C.). RNA was extracted using the RNA easy Plus Mini kit (Qiagen) according to the manufacturer's protocol. Extracted RNA was purified for genomic and plasmid DNA contamination by incubation with 1 μL DNase I at 37° C. for 30 minutes, and purified RNA was precipitated in 2.5 volumes of isopropanol overnight. RNA quantification was performed using the Qubit 4.0 fluorometer following the Qubit RNA broad range assay kit (Invitrogen). 500 ng of RNA was used for reverse transcription with the iScript reverse transcription supermix (Biorad) following the manufacturer's protocol. PCR was then used to […] amplify the region of interest in the m^6A sensor mRNA sequence (see Table 2). PCR products were column purified before Sanger sequencing using QiaQuick spin columns (Qiagen) and 10 μL reactions were submitted for standard amplicon sequencing (Azenta Life Sciences). C-to-U editing percentage was calculated using the EditR web server 59. To measure gene expression using gene-specific oligos, qPCR was performed using iTaq universal SYBR green Supermix (Biorad). 20 μL reactions were set up with 1 μL of cDNA for each sample, in 3 technical replicates. qPCR was performed on a Biorad CFX Duet real-time PCR instrument, and results were analyzed by normalizing threshold cycle of each target gene to 18S rRNA according to established methods^60. At least 2 biological replicates were used for each sample, and results are plotted as mean relative fold expression comparing treatment to the control group as indicated. Error bars represent standard deviation, and statistical significance was calculated using a two-way t-test assuming unequal variance.

Huh-7 cells = experiment: RT-qPCR gene expression in Huh-7 cells; format: cell-based, human; settings: increasing amounts of STM2457 (FIG. 9C)
Experimental: as §1, with “PCR products were column purified before Sanger sequencing using QiaQuick spin columns (Qiagen) and 10 μL reactions were submitted for standard amplicon sequencing (Azenta Life Sciences).” left out, “To measure gene expression using gene-specific oligos, qPCR was performed using iTaq universal SYBR green Supermix (Biorad).” left out, “At least 2 biological replicates were used for each sample, and results are plotted as mean relative fold expression comparing treatment to the control group as indicated.” left out

MOLM-13 cells = settings: AML cell line with high levels of METTL3; cited from earlier work
[2] = system: m^6A in cellular mRNA, HEK293T cells; experiment: Mass spectrometry of m^6A in purified mRNA; format: cell-based, human
Experimental: Mass spectrometry analysis. Total RNA was extracted as described above, and mRNA was purified using two rounds of oligo(dT) purification with Dynabeads oligo-(dT) mRNA purification kit (Invitrogen), followed by 2 rounds of rRNA depletion using NEBNext rRNA Depletion Kit (V2.0, NEB), and an additional two rounds of oligo(dT) purification with Dynabeads oligo-(dT) mRNA purification kit (Invitrogen). All mRNA purification steps were performed following the manufacturer's instructions. Purified mRNA quality was checked using a Bioanalyzer high sensitivity RNA analysis 6000 pico kit (Agilent). For mass spectrometry analysis, 100-200 ng of purified mRNA was incubated with 2 U of Nuclease P1 (Sigma) with 2.5 mM ZnCl and 25 mM NaCl at 37° C. for 2 hours. mRNA samples were treated with 5 U of antarctic phosphatase (NEB) for 2 h at 37° C. Samples were then processed using the Xevo TQ-S mass spectrometry system. All nucleosides were quantified by retention time and ion mass transitions of 268.2 to 133.2 (A) and 282.2 to 150.1 (m^6A). Data were plotted as a percentage of m^6A relative to A. At least 2 biological replicates were performed for each sample.

m^6A reporter mRNA = experiment: RT-qPCR of m^6A reporter mRNA abundance in HEK293T cells; format: cell-based, human
Experimental: as §1

[3] = system: METTL3 (m^6A methylation of the GEMS reporter mRNA), HEK293T cells; experiment: GEMS EGFP fluorescence microscopy / quantitative microscopy in HEK293T cells; format: cell-based, human
Experimental: Plasmid Transfection. Transfections were performed using Fugene HD (Promega) according to the manufacturer's instructions. For METTL3 inhibition experiments, cells were treated with 10 μM or 30 μM of STM2457 (MedChemExpress) for 16 hours prior to transfection. Cells were treated with 0.1% DMSO (VWR Life Science) as a control. For experiments using METTL3 degron cells, 0.1 mg/mL of auxin or equivalent volume of H2O (control) was added to the cells for 24 hours prior to plasmid transfection.
Microscopy. All images were obtained using a Leica DMi8 inverted fluorescence microscope. Images were processed using the Leica LAS X software. 4-5 fields of view were obtained per sample, and representative images were selected for each experiment.
Quantitative Microscopy. HEK293T cells were plated in 10 cm cell culture-treated dishes at a density of 2.2×10^6 cells per plate and allowed to grow overnight. Cells were then treated with 30 μM of STM2457 or DMSO control for 16 hours. Cells were then transfected with the GEMS-PEST-DsRed plasmid and allowed to grow for an additional 16 hours. Prior to imaging, media was replaced with 1×PBS with 1 μg/mL Hoechst nuclear fluorescent stain (ThermoFisher Scientific) for 30 minutes. Cells were imaged using a Leica DMi8 fluorescence microscope. Images were analyzed by ImageJ image analysis software. First, fluorescence channels were separated and RGB fluorescence channels were converted to grayscale (16-bit). Binary image thresholds were set in relation to DsRed fluorescence signal and background noise was subtracted. Individual cells were selected, and pixel intensities were generated of each individual cell within the field of view. Similar binary image thresholding, cell selection, and intensity datasets were generated for the EGFP image channel. Data were analyzed by dividing EGFP signal intensity for each cell by average DsRed signal intensity. Data were plotted in JMP software (IMP 17.0, SAS Institute Inc.) by normalized EGFP signal intensity for each treatment. Boxplots represent interquartile range of the data and whiskers represent minimum and maximum data points excluding outliers. Statistical significance was calculated using a two-way t-test assuming unequal variance.

[4] = system: m^6A sensor sequence and endogenous ACTB A1222; experiment: RT-qPCR-based m^6A quantification in HEK293T cells; format: cell-based, human; settings: METTL3 degron cells, auxin (FIG. 3F)
Experimental: m^6A detection using RT-qPCR. RNA was extracted and treated with DNase I as described above, and a relative quantification of m^6A by RT-qPCR was adapted from^28. 4 reverse transcription reactions were set up using 150 ng of RNA for each: 2 reactions using BstI polymerase (NEB), and 2 reactions using Superscript reverse transcriptase enzyme (Fisher Scientific). For each reverse transcriptase, one reaction included a primer adjacent (+) to the site being tested (reverse compliment reverse oligo immediately downstream of the site), and the other reaction included a primer that is non-adjacent (−) to the site. The BstI reaction consisted of 10 U BstI polymerase, […], 500 nM oligos (adjacent (+) or non-adjacent (−)), in 1× ThermoPol Buffer. Reactions were incubated in a thermal cycler with the following cycling settings: 3 minutes at 25° C., 30 minutes at 50° C., and 3 minutes at 85° C. Superscript III (SSIII) reactions consisted of 200 U Superscript III, […], 25 mM MgCl2+, 10 mM dNTPs, 500 nM oligos (adjacent or non-adjacent), 2 μL 10× FS Buffer, and water up to 20 μL. […] Threshold cycle values were obtained and relative m^6A was calculated using the formula: 2−(CT Bst(−)−Ct SSIII(−)/Ct Bst(+)−Ct SSIII(+)). […] Error bars represent standard deviation, and statistical significance was calculated using a two-way t-test assuming unequal variance.

STM2457
EGFP/EGFP-DHFR ratio, densitometry ([1]; HEK293T, 30 μM STM2457, 24 h (FIG. 5D)): reduced EGFP/EGFP-DHFR ratio | production of EGFP protein, western blot ([1]; HEK293T, 10 or 30 μM STM2457 (FIG. 5F)): decreased production of EGFP protein with increasing doses | EGFP protein, western blot ([1]; HEK293T, STM2457-treated (FIG. 5C)): decreased EGFP protein | production of EGFP protein, western blot, GEMS with EGFP-PEST ([1]; HEK293T, increasing doses of STM2457 (FIG. 5M)): decreased production of EGFP protein with increasing doses | C-to-U editing of the m^6A sensor sequence (m^6A sensor sequence; HEK293T, 30 μM STM2457, 24 h (FIG. 5J)): reduced C-to-U editing | editing of the m^6A sensor sequence (m^6A sensor sequence; HEK293T, 10 or 30 μM STM2457 (FIG. 5G)): decreased editing with increasing amounts | editing of the m^6A sensor sequence, GEMS with EGFP-PEST (m^6A sensor sequence; HEK293T, increasing amounts of STM2457 (FIG. 5N)): decreased editing with increasing amounts | SOCS2 mRNA expression, RT-qPCR (Huh-7 cells): dose-dependent increase | proliferation and colony formation (MOLM-13 cells): reduced proliferation and colony formation | m^6A in purified mRNA, mass spectrometry ([2]; HEK293T, STM2457 treatment (FIG. 5H)): depletion of m^6A | abundance of the m^6A reporter mRNA (m^6A reporter mRNA; HEK293T, 30 μM STM2457 or DMSO (FIG. 5I)): no significant difference | EGFP fluorescence from the GEMS system ([3]; HEK293T, 30 μM STM2457, 24 h (FIG. 5A)): reduced | EGFP fluorescence intensity, quantitative microscopy ([3]; HEK293T, 30 μM STM2457, EGFP normalized to DsRed (FIG. 5B)): significant reduction | m^6A-coupled EGFP fluorescence ([3]; HEK293T, 10 or 30 μM STM2457, 24 h, DsRed internal control (FIG. 5E)): increased depletion | EGFP signal, GEMS with EGFP-PEST ([3]; HEK293T, 10 or 30 μM STM2457, GEMS-EGFP-PEST, compared to GEMS-EGFP (FIG. 5L)): greater depletion at lower doses | EGFP fluorescence / GEMS activity activated by dCas13-GEMS ([3]; HEK293T, STM2457 for 16 hours, then dCas13-GEMS and gRNAs (FIG. 8F)): abolished; also recorded: decreased

C[C@@H]1C[C@@H]([C@H](O)CC2CC(=O)NC(=O)C2)C(=O)[C@@H](C)C1 [cycloheximide]
m^6A reporter mRNA levels (m^6A reporter mRNA; HEK293T with GEMS, cycloheximide 0-120 minutes (FIG. 3I)): no effect

O=C(O)Cc1c[nH]c2ccccc12 [auxin]
total reporter mRNA protein production (EGFP+EGFP-DHFR) relative to cyclophilin A ([1]; METTL3 degron cells expressing GEMS (FIG. 3H)): no significant difference | METTL3 and EGFP protein, western blot ([1]; METTL3 degron cells, auxin (FIG. 3C)): loss of METTL3 and EGFP | EGFP/EGFP-DHFR ratio ([1]; METTL3 degron cells, auxin (FIG. 3D)): decrease in EGFP/EGFP-DHFR | C-to-U editing of the m^6A sensor sequence (m^6A sensor sequence; METTL3 degron cells, auxin (FIG. 3E)): Editing is reduced | m^6A in purified mRNA, mass spectrometry ([2]; METTL3 degron cells, auxin-treated (FIG. 3A)): decrease in m^6A | m^6A sensor sequence methylation, RT-qPCR [4]: decreased m^6A | m^6A reporter mRNA expression, RT-qPCR (m^6A reporter mRNA; METTL3 degron cells with and without auxin (FIG. 3G)): no significant difference | EGFP fluorescence from the GEMS system ([3]; HEK293T METTL3 degron cells, auxin (FIG. 3B)): reduced EGFP fluorescence
